This note sets out measurements from article PMC10263210, “Design, Synthesis and Biological Evaluation of Novel MDH Inhibitors Targeting Tumor Microenvironment” (Pharmaceuticals, 2023).

The target of experiment [1] is T1, human recombinant MDH2 (Homo sapiens, UniProt P40926).
T1 construct: purchased BioVision
T1 sequence (P40926 25-338): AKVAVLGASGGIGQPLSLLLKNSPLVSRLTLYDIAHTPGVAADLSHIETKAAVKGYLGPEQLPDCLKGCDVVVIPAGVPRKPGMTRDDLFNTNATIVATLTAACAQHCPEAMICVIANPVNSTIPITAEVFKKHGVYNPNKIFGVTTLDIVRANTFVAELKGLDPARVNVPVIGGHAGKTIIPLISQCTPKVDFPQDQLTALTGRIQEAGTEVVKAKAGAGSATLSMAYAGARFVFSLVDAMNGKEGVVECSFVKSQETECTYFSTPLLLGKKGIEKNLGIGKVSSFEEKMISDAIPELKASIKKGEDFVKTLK
Description: MDH2 enzyme activity assay (oxaloacetate-dependent NADH oxidation). The note with it: means of three experiments. In kind it is biochemical. An excerpt:
To develop the dual inhibitors of MDH1 and MDH2, we screened the newly synthesized LW1497 derivatives using MDH and MDH2 enzyme assays. LW1497 was used as the positive control for the MDH1/2 dual inhibitor. We evaluated the ability of the synthesized compounds to inhibit human recombinant MDH1 and MDH2 enzymatic activity using an oxaloacetate-dependent NADH oxidation assay (Table 1, Table 2, Table 3, Table 4, Table 5 and Table 6). Our SAR optimization strategy focused on four different parts of LW1497: (A) the introduction of various groups at different positions on the amide phenyl ring; (B) the replacement of the 3-(4-(2,4,4-trimethylpentan-2-yl) alkyl chain; (C) the alteration of the amide portion; and (D) the modification of the oxypropanamide linker portion (Figure 1).
The activities of MDH1 and MDH2 were confirmed using an oxaloacetate-dependent NADH oxidation assay. Experiments were conducted using 100 mM of potassium phosphate buffer (pH 7.4) and human recombinant MDH1 (BioVision) and MDH2 (BioVision), and the results were obtained by measuring the absorbance at 340 nm. Enzyme activity was measured using a plate reader at a wavelength of 340 nm.

Experiment [2] deals with H460 lung cancer cells. Description: Cell growth inhibition assay (SRB), H460. The conditions noted are these: Homo sapiens, NCI-H460, means of three experiments, read-out: Cell Viability IC50 H460. In kind it is cell-based. As for the experimental part: At the same time, we investigated the effect of the compounds on the growth inhibition of A549 and H460 lung cancer cells bearing KRAS and LKB1 mutations. […] Compound 50 containing a piperidine linker was selected for further analysis.
Human lung carcinoma A549 cells were cultured in Dulbecco’s modified Eagle’s medium and H460 cells were cultured in RPMI 1640 medium containing 10% fetal bovine serum and 1% penicillin/streptomycin at 37 °C with a 5% Co2 hypoxia experimental condition. The cells were grown in the hypoxia chamber (1% O2, 94% N2, and 5% Co2 in a multigas incubator)
Cell growth inhibition was assessed using sulforhodamine B (SRB) as described in [34]. The cells were fixed with 10% formalin (Sigma-Aldrich) and stained with 0.4% SRB. Protein-bound dye was dissolved in 10 mM of Tris, and its optical density was measured at 540 nm.

Experiment [3] has as its system A549 cells. Description: ADP/ATP ratio assay. In kind it is cell-based, human. The method, then: Malate transported to the interior of the mitochondria is oxidized to OAA by mitochondrial MDH2, thereby generating NADH, which then enters the ETC to produce ATP. Because inhibition of MAS is expected to reduce ATP production in cancer cells, the total amount of ATP was measured after treatment with compound 50.
The ADP/ATP ratio assay kit (Sigma-Aldrich, USA) was used for ADP/ATP determination according to the manufacturer’s instructions. Samples for analysis were prepared using the ADP/ATP ratio assay kit. A549 cells were cultured directly in an assay microplate. The culture medium was removed, and then 90 µL of ATP reagent was added to each well and incubated for 1 min at room temperature. Luminescence was measured on a luminometer for ATP (RLUA), and the plate was incubated for an additional 10 min. Next, the luminescence was read on a luminometer for ATP (RLUB). Five microliters of ADP reagent were added to each well. After 1 min, the luminescence was read (RLUC).

In experiment [4] the test system is A549 cells. Briefly: Real-time ATP production rate (XF analyzer). In kind it is cell-based, human. An excerpt: We then examined whether the ATP production pattern was altered by drug treatment using an XF analyzer for real-time metabolic analysis (Figure 5).

Molecules are shown by their SMILES.

Usually IC50 stands for the concentration needed to halve the response being measured.

Consider `CC(C)(C)CC(C)(C)c1ccc(N2CCC(C(=O)Nc3cccc(OC(F)(F)F)c3)CC2)cc1` [Compound 50, N-(3-(Trifluoromethoxy)phenyl)-1-(4-(2,4,4-trimethylpentan-2-yl)phenyl)piperidine-4-carboxamide], for which the values for the half-maximal inhibitory concentration (IC50) in experiment [1] and in experiment [2] were 2.24 ± 0.09 µM and 3.67 ± 0.06 µM, respectively. The ADP/ATP entry in experiment [3] is “increase in ADP/ATP”. Moreover, the “total ATP decrease” value in experiment [4] (5 µM) worked out at 14.6%; in experiment [4] (10 µM), 28.6%.
